This is an account of results in patent US20080027088A1, “Imidazole-Based Hmg-Coa Reductase Inhibitors” (Warner-Lambert Company, LLC, priority 2004, published 2008).

Holding throughout (format): in vivo
Holding throughout (details): 0.3 mg/kg/day

In assay [1] the test system is ApoE KO mice fed a Western diet. The assay can be described thus: Plasma SM/PC ratio (HPLC) and ceramide (LC/MS/MS), 12 weeks. The source says: Analysis of Sphingolipids and Phospholipids by LC/MS and HPLC-Total lipids were extracted by the modified method of Bligh-Dyer extraction (E. G. Bligh and W. J. Dyer, Can. J. Med. Sci. 1959;37:911-917; and D. K. Perry, A. Bielawska and Y. A. Hannun, Methods Enzymol. 2000;312:22-31). A Micromass (Waters Corp., Milford, Mass.) Quattro Ultima tandem quadrupole mass spectrometer with a standard Z-sprayTM ion source, set to electrospray positive ionization mode, with MassLynxTM version 3.5 operating software, was used for all quantitative determinations. Source conditions were typically as follows: capillary 3.5 kV, source temperature 110 degrees C., and desolvation temperature 325 degrees C. […] The following ion transitions were used for quantification: sphingomyelin (704→184 m/z), sphinganine (302→284 m/z), ceramide (566→264 m/z) and psychosine (462→282 m/z) as an internal standard. […] For the quantitative method, the analytical column was a Phenomenex (Torrance, Calif.) Polar-RP (2.0×150 mm, 4 μm) with a […] […] Lipid extracts were analyzed by HPLC and evaporative light scattering detector to determine plasma sphingomyelin and phosphatidylcholine (PC) levels (R. Homan and M.K. Anderson, J. Chromatogr. B. Biomed. Sci. Appl. 1998;708:21-6). […] Plasma concentrations of SM and PC were determined, and SM/PC ratio (FIG. 13A) was calculated using HPLC. […]

The test system is the same in assay [2]. The assay can be described thus: Plasma lipoprotein cholesterol distribution by FPLC, 12 weeks. As to the method: (§1) Animal experiments—Male C57BI/6J and ApoE KO mice on C57BI/6J background were obtained from the Jackson Laboratory (Bar Harbor, Me.) or Taconic (Germantown, N.Y.) (Plaque formation in ApoE KO mice is lipid-driven (A. S. Plump et al., Cell. 1992;71 (2):343-53)). Myriocin was mixed with Western diet containing 0.21% cholesterol and 21% fat. 8-12-week-old mice received 0.3 mg myriocin/kg/day for 12 weeks (Table 1). 10-12 week-old ApoE KO mice (n=8) were pre-fed a western diet for 2 weeks and mice received various concentrations of myriocin for 4 weeks in diet admix. Control groups consisted of ApoE KO mice fed normal chow or Western diet without myriocin, and normal chow-fed C57BI/6J mice. Body weight and chow feeding was measured every week to examine the food consumption. For the femoral artery cuff model, 8-10 week-old male ApoE KO mice were anethetized and the right femoral artery was dissected from its surroundings. A nonconstrictive polyethylene cuff (Portex, 0.40-mm inner diameter, 0.80-mm outer diameter, and 1.5-mm length) was placed looselyaround the right femoral artery.
Plasma lipids and serum amyloid A measurement—Mice were sacrificed by CO2 inhalation and blood was collected through cardiac puncture. Plasma concentrations of total cholesterol and triglyceride were determined enzymatically on a Cobas Mira Plus auto-analyzer using Cholesterol R1 and Triglycerides Reagent methods, respectively (Roche Diagnostics, Indiana, USA). Colormetric changes were measured at 500 nm. Lipoproteins were separated from mouse plasma by fast-protein liquid chromatography utilizing a Superose 6HR column. Cholesterol distribution among lipoproteins was determined by in-line post column analysis (K. A. Kieft, T. M. Bocan and B. R. Krause, J. Lipid Res. 1991; 32:859-66). Serum Amyloid A (SAA) protein in plasma was measured by ELISA according to the manufacturer's instructions (Biosource).
FIG. 6. Plasma Lipoprotein Distribution of ApoE KO Mice Fed a Western Diet. After 12 weeks of diet admix myriocin treatment (0.3 mg/kg/day), mice were sacrificed and plasma was isolated for lipoprotein composition. βVLDL (A), LDL (B) and HDL (C) Lipoproteins were separated from mouse plasma by fast-protein liquid chromatography (FPLC) utilizing a Superose 6HR column. Cholesterol distribution among lipoproteins was determined by in-line post column analysis (Kieft, K. A., T. M. A. Bocan, B. R. Krause, J. Lipid Res. 1991, 32:859-866.). The values reported are mean±SEM (n=5, *P<0.01, Western diet vs other study groups; n=5, #P<0.05, Western diet plus myriocin vs normal chow).

Assay [3] shares this test system. The assay can be described thus: Plasma total cholesterol and triglyceride, 12 weeks. As for the experimental part: as §1, with “For the femoral artery cuff model, 8-10 week-old male ApoE KO mice were anethetized and the right femoral artery was dissected from its surroundings. A nonconstrictive polyethylene cuff (Portex, 0.40-mm inner diameter, 0.80-mm outer diameter, and 1.5-mm length) was placed looselyaround the right femoral artery.” left out
Plasma lipids and serum amyloid A measurement—Mice were sacrificed by CO2 inhalation and blood was collected through cardiac puncture. Plasma concentrations of total cholesterol and triglyceride were determined enzymatically on a Cobas Mira Plus auto-analyzer using Cholesterol R1 and Triglycerides Reagent methods, respectively (Roche Diagnostics, Indiana, USA). Colormetric changes were measured at 500 nm. […] Cholesterol distribution among lipoproteins was determined by in-line post column analysis (K. A. Kieft, T. M. Bocan and B. R. Krause, J. Lipid Res. 1991; 32:859-66). […]
FIG. 7. […] Colormetric changes were measured at 500 nm. […]

Where [4] appears, read: vs Western diet-fed ApoE KO mice.

Turning to `CCCCCCC(=O)CCCCCC/C=C/C[C@@H](O)[C@H](O)[C@@](N)(CO)C(=O)O` [myriocin], the “plasma ceramide levels reduced” value in assay [1] is 60%. Moreover, the “effect on plasma SM/PC ratio” value in assay [1] (vs Western diet-fed group) is given as “did not affect”. Moreover, the “plasma apoB levels” value in assay [2] (comparable to standard chow-fed group) is “lowered”. In assay [2] (setting [4]), this compound gave an HDL-cholesterol content increased of 54%, an LDL-cholesterol lowered of 35% and a βVLDL-cholesterol lowered of 51%. In assay [3], the “plasma TG lowered” value turned out to be 45% and the plasma cholesterol lowered is 41%.
